In patent US20160100585A1, “Pesticidal Mixtures” (priority 2012, published 2016):

How the values were obtained:
Format in all cases: in vivo
Sclerotinia sclerotiorum = experiment: Action against Sclerotinia sclerotiorum in soybean using pot trials (Use example FG-6); details: soy bean cv. Goriziana, pots, 14 days at 20° C; % of the untreated control (infection level 96%); pyraclostrobin 2.5 g ai/100 kg seeds as seed treatment, B. pumilus INR7 10 ml broth per seed as drench
Description: Pyraclostrobin was applied as commercial seed treatment formulation […], Ludwigshafen, Germany). The application of the pyraclostrobin was done as seed treatment and the seeds were treated in the BASF Seed Solutions Technology Center (SSTC) Limburgerhof using a batch lab treater. The respective amount of seeds was placed in the bowl of the treater and the slurry was dosed on the spinning disk. The B. pumilus INR7 were grown in shake flasks and used as fermentation broth with of at least 1×10^12 CFU per ml. This broth was added as a drench solution directly adjacent to the seeds with 10 ml for each seed kernel which makes 50 ml per pot. For the infection, rye kernels inoculated with Sclerotinia sclerotiorum were used. The trial was sown in 8 cm pots and as a substrate a mix of peat substrate and sand in the ratio 1:4 was used. The pots were filled with the substrate and the rye kernels inoculated with Sclerotinia sclerotiorum were placed directly adjacent to the seeds. In each pot 5 soy bean seeds (cv. Goriziana) were sown at a sowing depth of 2 cm, then covered with substrate. For each treatment 5 replications were made. […] For the assessment, the plants were evaluated according to a 2 class evaluation (healthy, diseased). Those figures were converted into efficacies in % of the untreated control and the efficacy (E) was calculated as follows using Abbot's formula.

wheat = experiment: Improvement of plant height in wheat, pot trials (Use example H-2); details: wheat cv. JB Asano, pots, 14 days at 20° C; untreated control = 100% (13.9 cm); pyraclostrobin 5 g ai/100 kg seeds as seed treatment, B. pumilus INR7 10 ml broth per seed as drench
Description: Pyraclostrobin was applied as commercial seed treatment formulation STAMINA (200 g/L a.i., BASF SE, Ludwigshafen, Germany).
In pot trials in Limburgerhof greenhouses, Bacillus pumilis INR7 was tested in wheat and maize as solo products and in combination with pyraclostrobin to show effects on plant height. The application of the pyraclostrobin was done as seed treatment and the seeds were treated in the BASF Seed Solutions Technology Center (SSTC) Limburgerhof using a batch lab treater. The respective amount of seeds was placed in the bowl of the treater and the slurry was dosed on the spinning disk.
The bacterials were grown in shake flasks and used as fermentation broth with a CFU of at least 1×10^12 per ml. This broth was added as a drench solution directly adjacent to the seeds with 10 ml for each seed kernel which makes 50 ml per pot.
The trial was sown in 8 cm pots and a mix of peat substrate and sand (ratio 1:4) was used as a substrate. […]
For the assessment, the plant height from all plants was measured in cm. […]
The expected relative plant height of active compound combinations were determined using Colby's formula (Colby, S. R. “Calculating synergistic and antagonistic responses of herbicide combinations”, Weeds 15, pp. 20-22, 1967) and compared with the observed efficacies. […]

Gaeumannomyces graminis = experiment: Action against Gaeumannomyces graminis in wheat using pot trials (Use example FG-7); details: wheat cv. JB Asano, pots, 14 days at 20° C; % of the untreated control (infection 96%); pyraclostrobin 2.5 g ai/100 kg seeds as seed treatment, B. pumilus INR7 10 ml broth per seed as drench
Description: Pyraclostrobin was applied as commercial seed treatment formulation […], Ludwigshafen, Germany). The application of the pyraclostrobin was done as seed treatment and the seeds were treated in the BASF Seed Solutions Technology Center (SSTC) Limburgerhof using a batch lab treater. The respective amount of seeds was placed in the bowl of the treater and the slurry was dosed on the spinning disk. The B. pumilus INR7 were grown in shake flasks and used as fermentation broth with of at least 1×10^12 CFU per ml. This broth was added as a drench solution directly adjacent to the seeds with 10 ml for each seed kernel which makes 50 ml per pot. For the assessment, the plants were evaluated according to a 2 class evaluation (healthy, diseased). Those figures were converted into efficacies in % of the untreated control and the efficacy (E) was calculated as follows using Abbot's formula. Experimental setup was identical to Use example FG-6 unless described below. For the infection, rye kernels inoculated with Gaeumannomyces graminis were used. The trial was sown in 8 cm pots and a mix of peat substrate and sand (ratio 1:4) was used as a substrate. The pots were filled with the substrate and the rye kernels inoculated with Gaeumannomyces graminis were placed directly adjacent to the wheat seeds. […] JB Asano) were sown at a sowing depth of 1.5 cm and then covered with substrate. […]

Pyraclostrobin
Observed efficacy (Sclerotinia sclerotiorum): 16.7% | Observed relative plant height (wheat): 99.4% | Observed efficacy (Gaeumannomyces graminis): 5.0%
